Tests used:
[1] = test system: Bacillus velezensis TCS001; assay: Affinity screening of Bacillus velezensis TCS001 and boscalid; type: cell-based; conditions: boscalid concentration 400 mg/L in LB plates, 28° C.
Method: Preparation of Bacillus velezensis TCS001 seed culture: 1,000 mL of LB solid medium (27 mL×30 vials) and 150 mL of LB liquid medium were prepared and sterilized; a single colony of Bacillus velezensis TCS001 was inoculated into the LB liquid medium and cultured in a shaker at 25° C., 164 rpm, for 16 h.
Preparation of toxin-containing medium: technical grade boscalid was dissolved in DMF to prepare a 10% stock solution for later use, which was diluted with sterile water containing 1%. Tween-80 to 10 times the test dose; 3 mL of the agent solution was sequentially pipetted from low concentration to high concentration, added to 27 mL of LB medium, thoroughly shaken, and equally poured into two culture dishes with a diameter of 9 cm to prepare agent-containing plates at corresponding concentrations. Each treatment had 2 replicates.
Affinity screening: the shaken Bacillus velezensis TCS001 seed culture was diluted to 1×10^6 CFU/mL; 40 μL was pipetted and spread onto the agent-containing plates and the control group plates, and incubated in a dark incubator at 28° C. The growth status of TCS001 was observed.

[2] = test system: strawberry gray mold-causing pathogen; assay: Indoor toxicity determination against strawberry gray mold on strawberry fruits; type: in vivo; conditions: after 4 days
Method: Bacillus velezensis TCS001, boscalid, and a mixture of Bacillus velezensis TCS001 and boscalid were diluted to the test doses. Healthy strawberry fruits were used as the test material. The strawberry fruits were immersed in the agent solution for 20 s. Each treatment had 3 replicates, with 9 fruits per replicate, and all fruits were uniformly punctured to a size of 5 mm×5 mm. A spore suspension of strawberry gray mold-causing pathogen at 1*10^5 spores/mL was prepared. After 24 h, the strawberry fruits treated with the agent solution were surface-sprayed with the spore suspension of strawberry gray mold-causing pathogen for inoculation. The strawberry fruits were placed in a high-humidity environment (RH 90-95%) and cultured at a constant temperature of 22° C. After 4 days, the lesion diameter was measured, and the inhibition rate (%) was calculated.
Inhibition rate (%)=(Diameter of colony in blank control−Diameter of colony in treatment)/Diameter of colony in blank control×100.
[formula] • X: inhibition rate of A at a dose of P; • Y: inhibition rate of B at a dose of Q; • E0: theoretical inhibition rate of A+B at a dose of (P+Q); and • E: actual inhibition rate of each treatment.
The Colby method was used to evaluate the synergistic effect of the combination. When E−E0>5%, a synergistic effect was indicated; when E−E0<−5%, an antagonistic effect was indicated; when the value of E−E0 was within ±5%, an additive effect was indicated.

With O=C(Nc1ccccc1-c1ccc(Cl)cc1)c1cccnc1Cl [Boscalid] the “colony count of Bacillus velezensis TCS001” value [1] was “comparable to that of the blank control”, the “Lesion Diameter” value ([2]; 10 mg/L) was 1.77 cm and the “Lesion Diameter” value ([2]; 12.5 mg/L) was 1.73 cm. For the same molecule, the “Lesion Diameter” value ([2]; 16 mg/L) was 1.66 cm, the “Lesion Diameter” value ([2]; 25 mg/L) was 1.14 cm and the “Lesion Diameter” value ([2]; 33 mg/L) was 1.04 cm. For the same molecule, the “Lesion Diameter” value ([2]; 50 mg/L) was 0.99 cm, the “Lesion Diameter” value ([2]; 100 mg/L) was 0.85 cm and the “Lesion Diameter” value ([2]; 160 mg/L) was 0.56 cm. It also gave an inhibition at 10 µg/mL ([2]; 96 h, 10 mg/L, read-out: Actual Inhibition Rate E) of 34.4%, an inhibition at 12.5 µg/mL ([2]; 96 h, 12.5 mg/L, read-out: Actual Inhibition Rate E) of 35.9% and an inhibition at 16 µg/mL ([2]; 96 h, 16 mg/L, read-out: Actual Inhibition Rate E) of 38.5%. It also gave an inhibition at 25 µg/mL ([2]; 96 h, 25 mg/L, read-out: Actual Inhibition Rate E) of 57.8%, an inhibition at 33 µg/mL ([2]; 96 h, 33 mg/L, read-out: Actual Inhibition Rate E) of 61.5% and an inhibition at 50 µg/mL ([2]; 96 h, 50 mg/L, read-out: Actual Inhibition Rate E) of 63.3%. For the same molecule, the inhibition at 100 µg/mL ([2]; 96 h, 100 mg/L, read-out: Actual Inhibition Rate E) was 68.5% and the inhibition at 160 µg/mL ([2]; 96 h, 160 mg/L, read-out: Actual Inhibition Rate E) was 79.3%.

— patent US20260240171A1, “BACTERICIDAL COMPOSITION COMPRISING BACILLUS VELEZENSIS TCS001 AND USE THEREOF” (priority 2023, published 2026)
